In ChEMBL document CHEMBL1140940, “Pyrido[2,3-d]pyrimidin-5-ones: a novel class of antiinflammatory macrophage colony-stimulating factor-1 receptor inhibitors” (J Med Chem, 2009):
Activity calls are given as the source filed them. No cut-off for these calls is given here.

What was measured:
[1] = biological target: T1, Receptor-type tyrosine-protein kinase FLT3 (Homo sapiens, UniProt P36888); assay: Inhibition of FLT3 by fluorescence polarization competition immunoassay
T1 sequence (P36888 whole entry): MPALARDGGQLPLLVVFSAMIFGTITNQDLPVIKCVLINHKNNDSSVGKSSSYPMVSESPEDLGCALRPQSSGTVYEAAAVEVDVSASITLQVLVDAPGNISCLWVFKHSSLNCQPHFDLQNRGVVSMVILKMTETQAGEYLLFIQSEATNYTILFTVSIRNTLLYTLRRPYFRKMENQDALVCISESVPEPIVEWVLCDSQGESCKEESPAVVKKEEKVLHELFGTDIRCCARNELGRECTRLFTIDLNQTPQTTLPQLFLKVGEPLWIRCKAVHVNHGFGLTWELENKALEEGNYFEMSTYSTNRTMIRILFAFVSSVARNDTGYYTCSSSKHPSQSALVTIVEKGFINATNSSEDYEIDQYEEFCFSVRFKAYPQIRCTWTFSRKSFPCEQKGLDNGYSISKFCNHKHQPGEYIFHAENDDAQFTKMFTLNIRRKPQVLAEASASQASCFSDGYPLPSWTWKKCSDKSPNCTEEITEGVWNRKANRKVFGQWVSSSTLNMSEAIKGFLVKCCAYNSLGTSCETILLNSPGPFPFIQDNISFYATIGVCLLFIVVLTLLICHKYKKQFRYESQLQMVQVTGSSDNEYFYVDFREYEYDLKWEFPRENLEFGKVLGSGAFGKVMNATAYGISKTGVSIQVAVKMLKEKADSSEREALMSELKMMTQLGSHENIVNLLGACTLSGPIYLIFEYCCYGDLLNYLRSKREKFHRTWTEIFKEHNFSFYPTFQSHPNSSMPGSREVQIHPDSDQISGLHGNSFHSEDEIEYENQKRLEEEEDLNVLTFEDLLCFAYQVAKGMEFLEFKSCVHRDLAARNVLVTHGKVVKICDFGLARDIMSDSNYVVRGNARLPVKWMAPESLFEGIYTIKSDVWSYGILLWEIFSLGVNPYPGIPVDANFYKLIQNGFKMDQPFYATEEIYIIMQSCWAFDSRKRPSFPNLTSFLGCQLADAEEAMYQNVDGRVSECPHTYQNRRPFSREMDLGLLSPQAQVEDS

[2] = biological target: Platelet-derived growth factor receptor beta (Homo sapiens, UniProt P09619); assay: Inhibition of PDGFRbeta by fluorescence polarization competition immunoassay
Sequence of Platelet-derived growth factor receptor beta (P09619 whole entry): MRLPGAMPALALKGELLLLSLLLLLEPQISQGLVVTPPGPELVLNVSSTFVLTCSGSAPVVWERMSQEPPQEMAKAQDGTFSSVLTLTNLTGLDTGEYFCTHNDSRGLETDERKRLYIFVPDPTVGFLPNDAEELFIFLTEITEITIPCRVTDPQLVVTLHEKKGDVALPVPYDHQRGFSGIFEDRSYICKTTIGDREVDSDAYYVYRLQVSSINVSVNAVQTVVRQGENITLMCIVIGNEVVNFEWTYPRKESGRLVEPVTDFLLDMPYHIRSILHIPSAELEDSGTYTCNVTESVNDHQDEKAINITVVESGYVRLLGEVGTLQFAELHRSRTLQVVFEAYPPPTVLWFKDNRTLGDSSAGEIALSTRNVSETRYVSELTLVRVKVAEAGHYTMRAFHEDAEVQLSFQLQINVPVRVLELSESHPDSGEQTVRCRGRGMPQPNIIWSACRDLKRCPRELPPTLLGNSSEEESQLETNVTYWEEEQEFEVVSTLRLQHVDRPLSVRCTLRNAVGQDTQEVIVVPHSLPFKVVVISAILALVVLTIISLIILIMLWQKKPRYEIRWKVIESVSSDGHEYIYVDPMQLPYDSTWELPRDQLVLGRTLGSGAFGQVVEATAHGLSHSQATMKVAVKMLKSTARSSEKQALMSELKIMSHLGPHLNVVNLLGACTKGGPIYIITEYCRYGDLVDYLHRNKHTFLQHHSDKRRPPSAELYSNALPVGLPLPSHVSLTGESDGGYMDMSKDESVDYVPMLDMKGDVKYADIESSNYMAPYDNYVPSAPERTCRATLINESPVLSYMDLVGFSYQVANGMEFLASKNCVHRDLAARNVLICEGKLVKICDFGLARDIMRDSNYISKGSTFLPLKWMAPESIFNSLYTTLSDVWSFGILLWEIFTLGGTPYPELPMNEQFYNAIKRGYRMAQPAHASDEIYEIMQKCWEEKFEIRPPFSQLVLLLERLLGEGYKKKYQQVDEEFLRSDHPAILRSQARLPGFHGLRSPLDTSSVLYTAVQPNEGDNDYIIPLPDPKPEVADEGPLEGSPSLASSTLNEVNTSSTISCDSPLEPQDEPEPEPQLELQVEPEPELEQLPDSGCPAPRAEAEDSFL

[3] = biological target: T2, Tyrosine-protein kinase receptor UFO (Homo sapiens, UniProt P30530); assay: Inhibition of Axl by fluorescence polarization competition immunoassay
T2 sequence (P30530 whole entry): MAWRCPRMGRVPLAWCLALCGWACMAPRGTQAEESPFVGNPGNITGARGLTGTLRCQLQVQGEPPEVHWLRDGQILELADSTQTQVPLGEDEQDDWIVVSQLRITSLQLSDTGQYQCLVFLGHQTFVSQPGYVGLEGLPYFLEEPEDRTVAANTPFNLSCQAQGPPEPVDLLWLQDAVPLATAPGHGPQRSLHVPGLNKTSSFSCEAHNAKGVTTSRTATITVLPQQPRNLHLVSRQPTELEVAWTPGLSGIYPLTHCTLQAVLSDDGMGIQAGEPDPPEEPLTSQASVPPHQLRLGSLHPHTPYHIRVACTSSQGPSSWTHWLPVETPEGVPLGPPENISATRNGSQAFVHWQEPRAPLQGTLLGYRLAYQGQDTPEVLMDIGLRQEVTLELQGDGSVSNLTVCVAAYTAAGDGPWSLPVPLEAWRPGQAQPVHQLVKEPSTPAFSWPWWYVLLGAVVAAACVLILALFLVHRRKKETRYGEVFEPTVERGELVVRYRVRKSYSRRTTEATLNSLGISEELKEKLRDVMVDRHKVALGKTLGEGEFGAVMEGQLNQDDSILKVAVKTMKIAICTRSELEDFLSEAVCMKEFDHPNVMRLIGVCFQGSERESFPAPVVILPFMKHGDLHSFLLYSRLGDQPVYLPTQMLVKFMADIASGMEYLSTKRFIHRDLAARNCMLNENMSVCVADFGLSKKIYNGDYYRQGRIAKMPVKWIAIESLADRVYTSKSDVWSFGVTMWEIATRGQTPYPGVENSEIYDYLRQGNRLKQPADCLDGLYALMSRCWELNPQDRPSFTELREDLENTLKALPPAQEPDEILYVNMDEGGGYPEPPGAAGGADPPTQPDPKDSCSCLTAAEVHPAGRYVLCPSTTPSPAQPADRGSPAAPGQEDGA

Insulin receptor = Insulin receptor (Homo sapiens, UniProt P06213); assay: Inhibition of IRKbeta by fluorescence polarization competition immunoassay
Sequence of Insulin receptor (P06213 28-758 limits assumed): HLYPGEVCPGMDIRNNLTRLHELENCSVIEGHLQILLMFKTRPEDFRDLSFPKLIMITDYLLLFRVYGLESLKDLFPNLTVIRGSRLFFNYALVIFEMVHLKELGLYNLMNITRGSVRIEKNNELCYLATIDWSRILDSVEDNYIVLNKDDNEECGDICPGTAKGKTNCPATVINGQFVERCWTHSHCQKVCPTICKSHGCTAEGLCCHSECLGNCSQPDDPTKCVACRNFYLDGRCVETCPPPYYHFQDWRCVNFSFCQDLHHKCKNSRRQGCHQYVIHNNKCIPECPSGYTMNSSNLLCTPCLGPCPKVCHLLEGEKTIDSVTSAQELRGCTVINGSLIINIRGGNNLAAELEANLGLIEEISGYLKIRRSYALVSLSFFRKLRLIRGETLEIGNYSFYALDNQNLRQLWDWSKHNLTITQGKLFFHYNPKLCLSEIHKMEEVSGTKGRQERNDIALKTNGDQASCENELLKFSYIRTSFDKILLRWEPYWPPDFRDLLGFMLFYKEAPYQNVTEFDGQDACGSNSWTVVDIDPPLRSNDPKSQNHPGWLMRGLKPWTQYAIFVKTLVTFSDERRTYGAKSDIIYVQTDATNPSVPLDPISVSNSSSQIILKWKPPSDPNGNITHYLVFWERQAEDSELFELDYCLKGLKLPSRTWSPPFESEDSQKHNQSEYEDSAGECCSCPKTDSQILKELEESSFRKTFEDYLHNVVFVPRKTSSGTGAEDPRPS
Sequence of Insulin receptor (P06213 763-1382 limits assumed): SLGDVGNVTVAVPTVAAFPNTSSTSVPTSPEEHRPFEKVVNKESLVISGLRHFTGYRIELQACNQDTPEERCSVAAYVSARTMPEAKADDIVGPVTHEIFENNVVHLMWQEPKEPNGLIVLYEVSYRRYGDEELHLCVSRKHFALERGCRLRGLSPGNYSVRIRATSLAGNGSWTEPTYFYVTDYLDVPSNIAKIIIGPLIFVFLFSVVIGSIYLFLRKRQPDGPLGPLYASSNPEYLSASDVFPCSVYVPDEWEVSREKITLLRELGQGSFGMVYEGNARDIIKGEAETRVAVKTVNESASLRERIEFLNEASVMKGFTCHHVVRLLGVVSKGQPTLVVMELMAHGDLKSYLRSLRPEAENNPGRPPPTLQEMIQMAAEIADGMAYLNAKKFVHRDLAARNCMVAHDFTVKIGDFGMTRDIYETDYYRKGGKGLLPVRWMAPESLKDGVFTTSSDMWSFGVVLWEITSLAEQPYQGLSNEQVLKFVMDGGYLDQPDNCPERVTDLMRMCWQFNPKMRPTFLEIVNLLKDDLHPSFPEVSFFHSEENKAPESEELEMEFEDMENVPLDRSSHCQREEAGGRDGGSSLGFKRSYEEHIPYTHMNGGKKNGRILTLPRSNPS

[4] = Clearance in mouse at 2 mg/kg, iv; assay type: ADME, organism-based; design: dose 2 mg/kg, route intravenous; conditions: in vivo
[5] = Half life in mouse at 10 mg/kg, po; assay type: ADME, organism-based; design: dose 10 mg/kg, route oral; conditions: in vivo
[6] = Cmax in dog at 10 mg/kg, po; assay type: ADME, organism-based, Canis lupus familiaris; design: dose 10 mg/kg, route oral; conditions: in vivo
[7] = Half life in dog at 2 mg/kg, iv; assay type: ADME, organism-based, Canis lupus familiaris; design: dose 2 mg/kg, route intravenous; conditions: in vivo
[8] = Clearance in dog at 2 mg/kg, iv; assay type: ADME, organism-based, Canis lupus familiaris; design: dose 2 mg/kg, route intravenous; conditions: in vivo
[9] = Volume of distribution at steady state in dog at 2 mg/kg, iv; assay type: ADME, organism-based, Canis lupus familiaris; design: dose 2 mg/kg, route intravenous; conditions: in vivo, read-out: Vdss
[10] = Oral bioavailability in dog at 10 mg/kg; assay type: ADME, organism-based, Canis lupus familiaris; conditions: in vivo
[11] = Half life in monkey at 2 mg/kg, iv; assay type: ADME, organism-based, Macaca mulatta; design: dose 2 mg/kg, route intravenous; conditions: rhesus monkey, in vivo
[12] = Oral bioavailability in monkey at 10 mg/kg; assay type: ADME, organism-based, Macaca mulatta; conditions: rhesus monkey, in vivo
Mus musculus = assay: Reduction of CSF1-induced increase in c-fos mRNA expression in B6C3F1 mouse at 3 mg/kg, po administered 6 hrs before CSF1 challenge measured 15 mins post CSF1 challenge relative to control; assay type: functional; design: scale not given: the % may be the effect or the level left
Rattus norvegicus [13] = assay: Reversal of ankle swelling in streptococcal cell wall-induced Lewis rat chronic arthritis model at 3 mg/kg, po twice daily administered on day 19 post streptococcal cell wall challenge; assay type: functional, organism-based; design: dose 3 mg/kg
Rattus norvegicus [14] = assay: Reversal of ankle swelling in streptococcal cell wall-induced Lewis rat chronic arthritis model at 1 mg/kg, po twice daily administered on day 19 post streptococcal cell wall challenge; assay type: functional, organism-based; design: dose 1 mg/kg
Rattus norvegicus [15] = assay: Antiinflammatory effect in Freund's complete adjuvant-induced Lewis rat arthritis model assessed as prevention of bone erosion at 10 mg/kg, po twice daily administered on day 8 post adjuvant challenge measured on day 21 post adjuvant challenge relative to control; assay type: functional, organism-based; design: dose 10 mg/kg
[16] = Plasma concentration in Freund's complete adjuvant-induced Lewis rat arthritis model at 1 mg/kg, po twice daily administered on day 8 post adjuvant challenge measured 7 days after last dose; assay type: ADME, organism-based; design: dose 1 mg/kg, route oral
[17] = Plasma concentration in Freund's complete adjuvant-induced Lewis rat arthritis model at 3 mg/kg, po twice daily administered on day 8 post adjuvant challenge measured 7 days after last dose; assay type: ADME, organism-based; design: dose 3 mg/kg, route oral
[18] = Half life in Sprague-Dawley rat at 10 mg/kg, po; assay type: ADME, organism-based; design: dose 10 mg/kg, route oral; conditions: in vivo
[19] = Clearance in Sprague-Dawley rat at 2 mg/kg, iv; assay type: ADME, organism-based; design: dose 2 mg/kg, route intravenous; conditions: in vivo
[20] = Oral bioavailability in Sprague-Dawley rat at 10 mg/kg; assay type: ADME, organism-based; conditions: in vivo
[21] = Metabolic stability in human liver microsomes after 10 mins; assay type: ADME, Microsome; conditions: read-out: Stability

## CONC(=O)c1cn(-c2ccc3c(c2)CCC3)c2nc(Nc3ccc(C4CCN(C)CC4)cc3)ncc2c1=O
[1]
  IC50: 6 nM
[2]
  IC50: 150 nM
[3]
  IC50: > 1000 nM
Insulin receptor
  IC50: 3700 nM
[4]
  clearance: 34 mL/min/kg
[5]
  half-life: 4 h
[6]
  Cmax: 120 nM
[7]
  half-life: 9.3 h
[8]
  clearance: 30 mL/min/kg
[9]
  Vd: 20.3 L/kg
[10]
  bioavailability: 33%
[11]
  half-life: 6.6 h
[12]
  bioavailability: 16.7%
Mus musculus
  Activity: 90%
Rattus norvegicus [13]
  Activity: Active
Rattus norvegicus [14]
  Activity: Active
Rattus norvegicus [15]
  Activity: Active
[16]
  concentration at 168 h: 55 nM
[17]
  concentration at 168 h: 189 nM
[18]
  half-life: 6.9 h
[19]
  clearance: 11 mL/min/kg
[20]
  bioavailability: 100%
[21]
  remaining at 10 min: 87%
